Test results reported in patent US4801616A, “Diphenylmethanone compounds and anti-inflammatory use thereof” (Eli Lilly and Company, priority 1986, dated 1989).

Legend:
5-lipoxygenase = biological target: T1, 5-lipoxygenase (Cavia porcellus, UniProt A0A286X958); experiment: 5-Lipoxygenase (5-LPO) Assay, inhibition of 5-HETE formation in PMNL sonicate supernatant; assay type: biochemical, guinea pig; details: guinea pig PMNL sonicate supernatant, 37° C., 5 μM 14C-arachidonic acid
T1 construct: incubating 0.2 ml of the supernatant obtained from the PMNL sonicate with the test compound; from tissue; host or cells: casein-elicited guinea pig peritoneal polymorphonuclear leukocytes (PMNL, more than 95 percent of the cells), sonicated, 30,000 x g supernatant
T1 sequence (A0A286X958 1-674): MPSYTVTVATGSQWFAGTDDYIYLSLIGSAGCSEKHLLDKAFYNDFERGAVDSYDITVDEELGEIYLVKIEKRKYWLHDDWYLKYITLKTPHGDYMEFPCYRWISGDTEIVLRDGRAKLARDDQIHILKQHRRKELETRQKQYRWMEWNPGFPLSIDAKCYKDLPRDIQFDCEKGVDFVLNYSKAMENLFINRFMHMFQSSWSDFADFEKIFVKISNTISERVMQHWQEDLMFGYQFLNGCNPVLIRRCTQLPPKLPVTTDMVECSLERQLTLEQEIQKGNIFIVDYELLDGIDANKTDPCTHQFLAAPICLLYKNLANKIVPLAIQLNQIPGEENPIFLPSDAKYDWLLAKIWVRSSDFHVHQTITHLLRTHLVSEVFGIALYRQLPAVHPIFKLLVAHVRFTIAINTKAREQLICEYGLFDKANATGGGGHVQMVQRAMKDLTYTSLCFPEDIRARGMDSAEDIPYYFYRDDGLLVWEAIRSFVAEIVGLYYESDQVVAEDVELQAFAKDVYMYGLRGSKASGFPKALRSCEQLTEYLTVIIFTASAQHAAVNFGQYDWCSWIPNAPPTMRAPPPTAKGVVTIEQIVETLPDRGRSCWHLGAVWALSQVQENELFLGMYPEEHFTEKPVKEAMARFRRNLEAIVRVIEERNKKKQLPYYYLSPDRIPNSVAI
Experimental: 5-Lipoxygenase (5-LPO) Assay
Ten milliliters of a 2% casein solution were injected intraperitoneally into guinea pigs weighing 250-300 gm. After 16-18 hours, the guinea pigs were killed by suffocation in a carbon dioxide chamber. The peritoneal cavity was infused with 70 ml of saline and 40-50 ml of the fluid were recovered from the cavity. After centrifugation, cell pellets were washed twice in Hank's balanced salt solution (HBSS) without calcium ion.
The cells were then suspended in 5 ml of sodium phosphate buffer, pH 7.1 containing 1 mM EDTA, and 0.1% gelatin. About 20-30×10^7 cells were obtained from one guinea pig.
The PMNL suspension was disrupted by five 1/2 second pulse sonications at the setting of 3 in a Branson Sonifier, Model 350, equipped with a microtip. The sonicates were combined and centrifuged at 30,000× g for 10 minutes. The supernatant was kept frozen at -70° C. until use.
Enzyme activity was determined by assaying for 5-HETE formation by first incubating 0.2 ml of the supernatant obtained from the PMNL sonicate with the test compound, 1 mM CaCl2, 2 mM ATP, and 1 mM GSH for 5 minutes at 37° C. The mixture is treated with 5 μM ^14 C-arachidonicacid and incubated at 37° C. an additional 10 minutes. The enzyme reaction was then stopped by the addition of 10 μl of 1M citric acid and 10μl of an alcohol solution containing 20 mg/ml each of indomethacin and butylated hydroxyanisole (BHA). The reaction mixture was spotted (50 μl on a silica gel plate (Baker TLC plate S1250-PA-19C) and subjected to TLC in a solvent system of ethyl acetate/2,2,4-trimethylpentane/glacial acetic acid/water (90:50:20:100).
The radioactivity of the arachidonic acid and its metabolites (5-HETE and LTB4) was visualized from a developed x-ray film which had been exposed to the TLC plate 1-2 days. The amount of 5-HETE formed was quantitated by scraping the silica gel area corresponding to the spot on the x-ray film, and the radioactivity determined in a Isocap/300 liquid scintillation counter (Searle Analytic, Inc.).
The percent inhibition of the formation of 5-HETE was determined for each concentration of test compound tested as compared to a control experiment wherein no test compound was added. The concentration and percent inhibition values were plotted on semi log paper and the concentration in which formation of 5-HETE is inhibited by 50% (IC50) was determined by interpolation.

[1] = biological target: T2, fatty acid cyclooxygenase (Homo sapiens, UniProt P23219); experiment: Fatty Acid Cyclooxygenase (FCO) Assay, inhibition of PGE2 formation by purified human platelet enzyme; assay type: biochemical; details: percent inhibition at 30 μg/ml
T2 construct: The solubilized fatty acid cyclooxygenase was applied to a 440 ml electrofocusing column; from tissue; host or cells: human platelets: microsomes solubilized with Triton X-100, purified by electrofocusing and G-200 Sephadex
T2 sequence (P23219 24-599): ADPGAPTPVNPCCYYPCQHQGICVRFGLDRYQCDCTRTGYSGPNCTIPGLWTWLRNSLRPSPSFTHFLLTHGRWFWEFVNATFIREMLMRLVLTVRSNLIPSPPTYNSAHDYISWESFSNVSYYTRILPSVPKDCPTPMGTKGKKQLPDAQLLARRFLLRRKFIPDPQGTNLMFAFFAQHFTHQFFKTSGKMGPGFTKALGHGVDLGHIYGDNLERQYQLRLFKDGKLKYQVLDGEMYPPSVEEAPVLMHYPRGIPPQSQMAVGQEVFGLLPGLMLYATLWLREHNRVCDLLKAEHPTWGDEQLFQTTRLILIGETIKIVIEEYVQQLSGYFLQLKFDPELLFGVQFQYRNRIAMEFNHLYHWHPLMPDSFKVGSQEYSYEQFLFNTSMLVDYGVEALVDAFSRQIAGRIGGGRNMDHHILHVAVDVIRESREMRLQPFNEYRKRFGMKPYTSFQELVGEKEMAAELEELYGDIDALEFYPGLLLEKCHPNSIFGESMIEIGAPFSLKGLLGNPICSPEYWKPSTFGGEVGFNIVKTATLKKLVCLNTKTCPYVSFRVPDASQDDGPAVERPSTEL
Experimental: Fatty Acid Cyclooxygenase (FCO) Assay
Microsomes were prepared from 185 bags of human platelets (each bag containing the platelets from one pint of blood prepared using differential centrifugation procedures). The platelets from approximately 60 bags were prepared at one time. Platelet-rich plasma (500 g) was centrifuged at 10,000×g for 20 minutes, and the platelet pellet was suspended in 100 ml of 0.1M potassium phosphate buffer, pH 8.0, with a Teflon glass homogenizer and sonicated for 5.0 minutes with a Bronson Sonifier (Model 350) in a rosette flask cooled in ice water. Disrupted platelets were centrifuged 15 minutes at 10,000× g. The supernatant was centrifuged at 100,000× g for 90 minutes and the microsomal pellets were homogenized in 25 ml of 20% sucrose containing 1.0% Triton X-100 detergent. After 30 minutes at 4° C., the solubilized microsomes were centrifuged at 100,000× g for 60 minutes. The yellow supernatant was removed and stored at -70 ° C.
The solubilized fatty acid cyclooxygenase was applied to a 440 ml electrofocusing column (LKB-8012) containing 1% phisolytes (Brinkman Instruments, Westburgh, NY), pH 2-11, with the cathode at the top of the column. The enzyme was layered onto the column at the appropriate time so that its sucrose concentration was equal to that of the column gradient. This was accomplished by checking the gradient concentration periodically with a sucrose hand refractometer. Electrofocusing was carried out for 16 hours with an initial voltage of 400 V and a final voltage of 900-1,000 volts. Fractions were collected (20 ml) and assayed for PGE2 formation. Active peak fractions were pooled and concentrated by ultrafiltration (XM 100A) to a volume of 3-5 ml.
Active fractions from electrofocusing were applied to a G-200 Sephadex column (2 cm×46 cm) and eluted with 10 mM potassium phosphate buffer, pH 7.0, in 5 ml fractions. After assay, active fractions were poored and concentrated to 1.0 ml by ultrafiltration (XM 100A), and kept frozen at -70° C.
Enzyme activity was determined by assaying for PGE2 formation by preincubating the enzyme with 10 mmol/l imidazole phosphate buffer, pH 8.0, 2 mmol/l epinephrine, 2 mmol/l methemoglobin, and the test compound (30 μg/ml) in a total volume of 0.2 ml for one minute at 37° C. After preincubation, 5 mmol/l ^14 C-arachidonic acid were added and the mixture was incubated an additional 0.5 minutes at 37° C. The enzyme reaction was stopped by the addition of 2 μl of indomethacin (2 mg/ml) in alcohol.
The reaction mixture was spotted (50 μl) on a silica gel (LQ6D) plate and subjected to TLC. The solvent system consisted of chloroform-methanol-glacial acetic acid (90:5:5, v/v/v) and the relative mobilities were PGF2α =0.235, and PGE2 =0.47. The silica gel on the plate was scraped in 1 cm sections, suspended in 5 ml of the scintillation fluid [5.88 g of 2,5-diphenyloxazole and 118 mg of 1,4 -bis(5-phenyloxazol-2-yl)benzene] dissolved in 650 ml of toluene and 350 ml of Triton X-100) and the radioactivity was determined in an Isocap/300 liquid scintillation counter (Searle Analytic, Inc., Southfield, Mich.). Another 50 μl of the mixture was added to 10 ml of the Triton X-100 based scintillation fluid, and the radioactivity was determined so that the amount of radioactivity recovery from the TLC plate could be ascertained. PGE2 formation for each test compound was determined as a percent of control experiments wherein no test compound was added. Data is expressed in Table I either as the percent inhibition of formation of PGE2 at a test compound concentration of 30 μ g/ml, or as an IC50 for inhibition of PGE2 formation.

| IC50 (5-lipoxygenase) [µM] | inhibition at 30 µg/mL [1] [%] | Compound |
| --- | --- | --- |
| 21.8 | 15 | CCCc1c(OCCCCC#N)ccc(C(=O)c2ccccc2OC)c1O [Example 18, 5-[3-Hydroxy-4-(2-methoxybenzoyl)-2-propylphenoxy]pentanenitrile] |
| 11.2 | 12 | CCCc1c(OC(C)=O)ccc(C(=O)c2ccccc2OC(C)=O)c1O [Example 6, [4-(Acetyloxy)-2-hydroxy-3-propylphenyl][2(acetyloxy)phenyl]methanone] |
